Reference: US20060004043A1, “Indazole compounds and methods of use thereof” (priority 2003, published 2006)

Molecular target: Rsk1 (Rattus norvegicus, UniProt Q63531)
Test: Rsk1(r) kinase assay, 33P-ATP filter binding
Type: biochemical
Conditions: compound at 3 μM; [ATP] = 10 μM
Method: The assays briefly described below in Examples 54-123 were carried out as described in Davies et al., Biochem. J., 351:95-105 (2000). All assays were carried out at 10 μM ATP unless otherwise noted.
All kinases are pre-diluted to a 10× working concentration prior to addition into the assay. The composition of the dilution buffer for each kinase is described below in Table 3.
In addition, the following abbreviations are used: h is human; r is rat; m is mouse; b is bovine; and y is yeast.
In a final reaction volume of 25 μl, Rsk1(r) (5-10 mU) is incubated with 8 mM MOPS pH 7.0, 0.2 mM EDTA, 30 μM […], 10 mM MgAcetate and [γ-^33P-ATP] (Specific activity approx. 500 cpm/pmol, concentration as required). The reaction is initiated by the addition of Mg^2+[γ-^33P-ATP]. After incubation for 40 minutes at room temperature, the reaction is stopped by the addition of 5 μl of a 3% phosphoric acid solution. 10 μl of the reaction is then spotted onto a P30 filtermat and washed three times for 5 minutes in 75 mM phosphoric acid and once in methanol prior to drying and scintillation counting.
Using the appropriate assay protocols as listed above, kinase inhibition data for Compounds 21 and 71 was determined for the following kinases: CDK1/cyclin B, CDK2/cyclin A, cSRC, Yes, MEK1, and Rsk1.

Chain of Rsk1 (Q63531 whole entry): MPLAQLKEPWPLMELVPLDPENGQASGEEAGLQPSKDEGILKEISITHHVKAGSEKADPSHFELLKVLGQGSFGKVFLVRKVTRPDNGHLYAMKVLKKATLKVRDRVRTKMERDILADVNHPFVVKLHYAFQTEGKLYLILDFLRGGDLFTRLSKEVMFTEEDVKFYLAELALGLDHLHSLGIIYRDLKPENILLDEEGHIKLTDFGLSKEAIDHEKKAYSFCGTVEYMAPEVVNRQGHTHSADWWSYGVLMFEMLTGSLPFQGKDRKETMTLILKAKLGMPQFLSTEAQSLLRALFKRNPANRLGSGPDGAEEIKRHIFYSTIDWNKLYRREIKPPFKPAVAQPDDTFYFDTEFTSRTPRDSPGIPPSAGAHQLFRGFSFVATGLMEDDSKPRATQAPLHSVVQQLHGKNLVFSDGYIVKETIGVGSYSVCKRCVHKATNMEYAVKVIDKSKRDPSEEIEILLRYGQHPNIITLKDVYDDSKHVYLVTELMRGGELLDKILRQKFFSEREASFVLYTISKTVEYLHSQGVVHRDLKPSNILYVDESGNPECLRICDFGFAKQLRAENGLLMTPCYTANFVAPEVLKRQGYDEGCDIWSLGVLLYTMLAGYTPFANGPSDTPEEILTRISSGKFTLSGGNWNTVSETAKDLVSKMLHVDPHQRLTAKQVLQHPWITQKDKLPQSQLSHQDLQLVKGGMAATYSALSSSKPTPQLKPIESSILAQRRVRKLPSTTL

Rsk1 (% control) | SMILES
4 % control | COc1ccc2cc(-c3n[nH]c4ccc(-c5n[nH]c(CN6CCOCC6)n5)cc34)ccc2c1 [Compound 20]
29 % control | CC(C)(C)Cc1nc(-c2ccc3[nH]nc(-c4ccc5cc(OCc6ccccn6)ccc5c4)c3c2)n[nH]1 [Compound 92]
